Data as given in ChEMBL document CHEMBL5385896, “Discovery of PIM-1 kinase inhibitors based on the 2,5-disubstituted 1,3,4-oxadiazole scaffold against prostate cancer: Design, synthesis, in vitro and in vivo cytotoxicity investigation” (Eur J Med Chem, 2023).
Each block holds one compound with its values, some of them ahead of it. Calls of active or inactive are those of the source. The rule behind the calls is not given here.

How the values were obtained:
MCF7 = assay: cells; assay type: functional, cell-based; details: Homo sapiens, MCF7, 48 h
Description: Cytotoxicity against human MCF7 cells assessed as inhibition of cell growth incubated for 48 hrs by MTT assay

HepG2 = assay: Cytotoxicity against human HepG2 cells assessed as inhibition of cell growth incubated for 48 hrs by MTT assay; assay type: functional, cell-based; details: HepG2, 48 h
PC-3 [1] = assay: cells; assay type: functional, cell-based; details: Homo sapiens, PC-3, 48 h
Description: Cytotoxicity against human PC-3 cells assessed as inhibition of cell growth incubated for 48 hrs by MTT assay

PC-3 [2] = assay: Antitumor activity against human PC-3 cells xenografted in mouse assessed as decrease in AST level at 5.2 mg/kg,ip administration (reference value: 85.38 +/- 1.59 I/U); assay type: functional
PC-3 [3] = assay: Antitumor activity against human PC-3 cells xenografted in mouse assessed as decrease in WBC count at 5.2 mg/kg,ip administration (reference value: 4.98 +/- 0.87 10^3/microL); assay type: functional
PC-3 [4] = assay: Antitumor activity against human PC-3 cells xenografted in mouse assessed as increase in RBC count at 5.2 mg/kg,ip administration (reference value: 2.34 +/- 0.57 10^6/microL); assay type: functional
PC-3 [5] = assay: Antitumor activity against human PC-3 cells xenografted in mouse assessed as decrease in tumor mass at 5.2 mg/kg,ip administration; assay type: functional; parameters: scale not given: the % may be the effect or the level left
PC-3 [6] = assay: Antitumor activity against human PC-3 cells xenografted in mouse assessed as increase in hemoglobin level at 5.2 mg/kg,ip administration (reference value: 2.94 +/- 0.54 g/dl); assay type: functional
PC-3 [7] = assay: Antitumor activity against human PC-3 cells xenografted in mouse assessed as increase in total protein level at 5.2 mg/kg,ip administration (reference value: 4.01 +/- 0.27 g/dl); assay type: functional
PC-3 [8] = assay: Antitumor activity against human PC-3 cells xenografted in mouse assessed as decrease in ALT level at 5.2 mg/kg,ip administration (reference value: 81.25 +/- 1.69 I/U); assay type: functional
PC-3 [9] = assay: Antitumor activity against human PC-3 cells xenografted in mouse assessed as decrease in tumor volume at 5.2 mg/kg,ip administration; assay type: functional
PC-3 [10] = assay: Induction of apoptosis in human PC-3 cells assessed as nuclear condensation at 0.017 uM incubated for 48 hrs by DAPI-staining based confocal microscopic analysis; assay type: functional, cell-based
PC-3 [11] = assay: Antitumor activity against human PC-3 cells xenografted in mouse assessed as tumor growth inhibition at 4.2 mg/kg,ip administration; assay type: functional; details: read-out: TGI
PC-3 [12] = assay: Antitumor activity against human PC-3 cells xenografted in mouse assessed as decrease in tumor volume at 4.2 mg/kg,ip administration; assay type: functional
PC-3 [13] = assay: Induction of apoptosis in human PC-3 cells assessed as fold decrease in STAT3 gene expression at 0.017 uM incubated for 48 hrs by RT-PCR analysis; assay type: functional
PC-3 [14] = assay: Induction of cell cycle arrest in human PC-3 cells assessed as accumulation of cells at PreG1-phase at 0.017 uM incubated for 48 hrs by Annexin V-FITC and PI staining based flow cytometric analysis (reference value: 1.37 %); assay type: functional
[15] = Antioxidant activity assessed as DPPH radical scavenging activity incubated for 30 mins; assay type: functional
PC-3 [16] = assay: Induction of apoptosis in human PC-3 cells assessed as fold decrease in JAK2 gene expression at 0.017 uM incubated for 48 hrs by RT-PCR analysis; assay type: functional
PC-3 [17] = assay: Induction of apoptosis in human PC-3 cells assessed as fold change in caspase-9 gene expression at 0.017 uM incubated for 48 hrs by RT-PCR analysis; assay type: functional
PC-3 [18] = assay: Antitumor activity against human PC-3 cells xenografted in mouse assessed as decrease in tumor mass at 4.2 mg/kg,ip administration; assay type: functional
PC-3 [19] = assay: Induction of apoptosis in human PC-3 cells assessed as late apoptotic cells at 0.017 uM incubated for 48 hrs by Annexin V-FITC and PI staining based flow cytometric analysis (reference value: 0.18 %); assay type: functional
in vitro = details: human, RWPE2 cells
Description: Cytotoxicity against human RWPE2 cells assessed as inhibition of cell growth incubated for 48 hrs by MTT assay

PC-3 [20] = assay: Induction of apoptosis in human PC-3 cells assessed as fold increase in apoptosis at 0.017 uM incubated for 48 hrs by DAPI-staining based confocal microscopic analysis; assay type: functional
PC-3 [21] = assay: Induction of cell cycle arrest in human PC-3 cells assessed as accumulation of cells at G2/M-phase at 0.017 uM incubated for 48 hrs by Annexin V-FITC and PI staining based flow cytometric analysis (reference value: 13.19 %); assay type: functional
PC-3 [22] = assay: Induction of apoptosis in human PC-3 cells assessed as fold change in caspase-8 gene expression at 0.017 uM incubated for 48 hrs by RT-PCR analysis; assay type: functional
PC-3 [23] = assay: Antitumor activity against human PC-3 cells xenografted in mouse assessed as decrease in body weight loss at 4.2 mg/kg,ip administration; assay type: functional, organism-based
PC-3 [24] = assay: Induction of apoptosis in human PC-3 cells assessed as fold decrease in BCL-2 gene expression at 0.017 uM incubated for 48 hrs by RT-PCR analysis; assay type: functional
PC-3 [25] = assay: Induction of cell cycle arrest in human PC-3 cells assessed as accumulation of cells at G1-phase at 0.017 uM incubated for 48 hrs by Annexin V-FITC and PI staining based flow cytometric analysis (reference value: 44.73 %); assay type: functional
[26] = Toxicity in mouse xenografted with human PC-3 cells assessed as lethal dose at ip administration; assay type: organism-based; details: in vivo
PC-3 [27] = assay: Induction of apoptosis in human PC-3 cells assessed as fold change in p53 gene expression at 0.017 uM incubated for 48 hrs by RT-PCR analysis; assay type: functional
PC-3 [28] = assay: Induction of cell cycle arrest in human PC-3 cells assessed as accumulation of cells at S-phase at 0.017 uM incubated for 48 hrs by Annexin V-FITC and PI staining based flow cytometric analysis (reference value: 42.08 %); assay type: functional
PC-3 [29] = assay: Induction of apoptosis in human PC-3 cells assessed as fold change in caspase-3 gene expression at 0.017 uM incubated for 48 hrs by RT-PCR analysis; assay type: functional
PC-3 [30] = assay: Induction of apoptosis in human PC-3 cells at 0.017 uM incubated for 48 hrs by Annexin V-FITC and PI staining based flow cytometric analysis relative to control; assay type: functional
[31] = target: Serine/threonine-protein kinase pim-1 (Homo sapiens, UniProt P11309); assay: Inhibition of PIM-1 (unknown origin)
Sequence of Serine/threonine-protein kinase pim-1 (P11309 whole entry): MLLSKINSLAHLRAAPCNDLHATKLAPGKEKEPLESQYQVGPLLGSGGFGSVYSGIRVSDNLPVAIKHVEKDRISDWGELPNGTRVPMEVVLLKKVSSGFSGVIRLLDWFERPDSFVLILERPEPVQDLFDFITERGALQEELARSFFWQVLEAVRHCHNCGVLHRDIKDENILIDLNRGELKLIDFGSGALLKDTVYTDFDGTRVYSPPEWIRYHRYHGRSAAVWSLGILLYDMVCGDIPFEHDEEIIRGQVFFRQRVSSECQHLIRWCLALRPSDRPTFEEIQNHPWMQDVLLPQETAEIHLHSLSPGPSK

PC-3 [32] = assay: Antitumor activity against human PC-3 cells xenografted in mouse assessed as hepatocyte hydropic degeneration at 5.2 mg/kg,ip administration by; assay type: functional, organism-based
[33] = Antioxidant activity assessed as DPPH radical scavenging activity at 100 uM incubated for 30 mins relative to control; assay type: functional
PC-3 [34] = assay: Induction of apoptosis in human PC-3 cells assessed as fold change in PUMA gene expression at 0.017 uM incubated for 48 hrs by RT-PCR analysis; assay type: functional
PC-3 [35] = assay: Antitumor activity against human PC-3 cells xenografted in mouse assessed as decrease in liver damage at 5.2 mg/kg,ip administration by; assay type: functional, organism-based
PC-3 [36] = assay: Induction of apoptosis in human PC-3 cells assessed as early apoptotic cells at 0.017 uM incubated for 48 hrs by Annexin V-FITC and PI staining based flow cytometric analysis (reference value: 0.27 %); assay type: functional
PC-3 [37] = assay: Induction of apoptosis in human PC-3 cells assessed as necrotic cells at 0.017 uM incubated for 48 hrs by Annexin V-FITC and PI staining based flow cytometric analysis (reference value: 0.77 %); assay type: functional
PC-3 [38] = assay: Antitumor activity against human PC-3 cells xenografted in mouse assessed as hepatocyte balloon degeneration at 5.2 mg/kg,ip administration by; assay type: functional, organism-based

- IC50 (MCF7): 0.75 µM
- IC50 (PC-3 [1]): 3.21 µM
Structure (SMILES): COc1cccc(-c2nnc(-c3ccnc(-c4ccccc4)c3)o2)c1
- IC50 (HepG2): ≥ 50 µM

- IC50 (MCF7): 18.9 µM
- IC50 (PC-3 [1]): 2.31 µM
Structure (SMILES): Fc1ccc(-c2nnc(-c3ccnc(-c4ccccc4)c3)o2)cc1
- IC50 (HepG2): ≥ 50 µM

- IC50 (MCF7): 9.66 µM
- IC50 (PC-3 [1]): ≥ 50 µM
Structure (SMILES): FC(F)(F)c1ccc(-c2cc(-c3nnc(-c4ccccc4)o3)ccn2)cc1
- IC50 (HepG2): 4.03 µM

- IC50 (MCF7): 20.5 µM
- IC50 (PC-3 [1]): 2.01 µM
Structure (SMILES): COc1ccc(-c2nnc(-c3ccnc(-c4ccccc4)c3)o2)c(F)c1
- IC50 (HepG2): 13.7 µM

- IC50 (MCF7): 9.7 µM
- IC50 at 48 h (in vitro): ≥ 50 µM
- IC50 (PC-3 [1]): 0.56 µM
Structure (SMILES): COc1ccc(-c2nnc(-c3ccnc(-c4ccccc4)c3)o2)cc1
- Activity [15]: Dose-Dependent Effect
- IC50 (HepG2): 7.06 µM

- IC50 (MCF7): 3.8 µM
- IC50 (PC-3 [1]): 6.21 µM
Structure (SMILES): Fc1cccc(-c2nnc(-c3ccnc(-c4ccccc4)c3)o2)c1
- IC50 (HepG2): 4.31 µM

- IC50 (MCF7): 8.36 µM
- IC50 at 48 h (in vitro): 42.6 µM
- IC50 (PC-3 [1]): 12.7 µM
Structure (SMILES): c1ccc(-c2cc(-c3nnc(-c4ccccc4)o3)ccn2)cc1
- IC50 (HepG2): 13.9 µM

- IC50 (MCF7): 12.4 µM
- IC50 (PC-3 [1]): 13.2 µM
Structure (SMILES): COc1cccc(-c2nnc(-c3ccnc(-c4ccc(C(F)(F)F)cc4)c3)o2)c1
- IC50 (HepG2): ≥ 50 µM

More lines, now with the values behind:

Structure (SMILES): COc1ccc(-c2nnc(-c3ccnc(-c4ccc(C(F)(F)F)cc4)c3)o2)cc1
- IC50 (MCF7): 25.7 µM
- IC50 (HepG2): 3.25 µM
- IC50 (PC-3 [1]): 9.31 µM

Structure (SMILES): CN[C@@H]1C[C@H]2O[C@@](C)([C@@H]1OC)n1c3ccccc3c3c4c(c5c6ccccc6n2c5c31)C(=O)NC4 [STAUROSPORINE]
- Activity (PC-3 [2]): 47.38 U/L
- Activity (PC-3 [3]): 2.81 10^3 /uL
- Activity (PC-3 [4]): 4.95 10^6 /uL
- IC50 (HepG2): 5.07 µM
- Activity (PC-3 [5]): 20%
- Activity (PC-3 [6]): 6.52 g/dL
- Activity (PC-3 [7]): 5.39 g/dL
- Activity (PC-3 [8]): 50.4 U/L
- Activity (PC-3 [9]): 52.9 mm3

Structure (SMILES): Clc1cccc(-c2nnc(-c3ccnc(-c4ccccc4)c3)o2)c1
- Activity (PC-3 [10]): Active
- inhibition in vivo at 4.2 mg/kg (PC-3 [11]): 64.2%
- Activity (PC-3 [12]): 34.1 mm3
- IC50 (MCF7): 5.37 µM
- fold change (FC) (PC-3 [13]): 0.48
- Activity (PC-3 [2]): 48.9 U/L
- Activity (PC-3 [14]): 26.44%
- Activity (PC-3 [3]): 2.87 10^3 /uL
- Activity [15]: Dose-Dependent Effect
- fold change (FC) (PC-3 [16]): 0.52
- Activity (PC-3 [4]): 4.02 10^6 /uL
- fold change (FC) (PC-3 [17]): 8.67
- IC50 (HepG2): 0.13 µM
- Activity (PC-3 [18]): 89.4 mg
- Activity (PC-3 [19]): 17.35%
- IC50 at 48 h (in vitro): 35.4 µM
- fold change (FC) (PC-3 [20]): 37.2
- Activity (PC-3 [21]): 7.46%
- IC50 (PC-3 [1]): 0.016 µM
- fold change (FC) (PC-3 [22]): 3.25
- Activity (PC-3 [23]): Active
- fold change (FC) (PC-3 [24]): 0.45
- Activity (PC-3 [25]): 47.36%
- LD50 [26]: 4.2 mg/kg
- fold change (FC) (PC-3 [27]): 6.58
- Activity (PC-3 [28]): 45.18%
- Activity (PC-3 [6]): 6.89 g/dL
- fold change (FC) (PC-3 [29]): 6.98
- Activity (PC-3 [30]): 19.44%
- IC50 [31]: 17 µM
- Activity (PC-3 [32]): Active
- Activity [33]: 94%
- fold change (FC) (PC-3 [34]): 3.85
- Activity (PC-3 [7]): 5.74 g/dL
- Activity (PC-3 [8]): 49.8 U/L
- Activity (PC-3 [35]): Active
- Activity (PC-3 [36]): 2.09%
- Activity (PC-3 [37]): 11.9%
- Activity (PC-3 [38]): Active

Structure (SMILES): Fc1cccc(-c2nnc(-c3ccnc(-c4ccc(C(F)(F)F)cc4)c3)o2)c1
- IC50 (MCF7): 70.1 µM
- Activity [15]: Dose-Dependent Effect
- IC50 (HepG2): 6.02 µM
- IC50 at 48 h (in vitro): 31.9 µM
- IC50 (PC-3 [1]): 0.76 µM

Structure (SMILES): Cc1c(C)c2c(c(C)c1O)CCC(C)(C(=O)O)O2 (configuration not stated)
- Activity [33]: 96%

Structure (SMILES): FC(F)(F)c1ccc(-c2cc(-c3nnc(-c4cccc(Cl)c4)o3)ccn2)cc1
- IC50 (MCF7): 10 µM
- IC50 (HepG2): 3.24 µM
- IC50 (PC-3 [1]): ≥ 50 µM

Structure (SMILES): Fc1ccc(-c2nnc(-c3ccnc(-c4ccc(C(F)(F)F)cc4)c3)o2)cc1
- IC50 (MCF7): 13.7 µM
- Activity [15]: Dose-Dependent Effect
- IC50 (HepG2): 7.21 µM
- IC50 at 48 h (in vitro): 45.7 µM
- IC50 (PC-3 [1]): 0.82 µM
